In data set [1] the test system is microtubule network of MCF-7 cells. Description: Immunofluorescence microscopy. It is filed as cell-based, human. Particulars: 100 nM, 16 h. The protocol:
Confocal microscopy was used to study the effects of drug treatment on MCF-7 cytoskeleton. For immunofluorescence, MCF-7 cells were seeded at 1 × 10^5 cells/mL on eight chamber glass slides (BD Biosciences, 2350 Qume Dr, San Jose, CA, USA). Cells were either untreated or treated with vehicle [1% ethanol (v/v)], paclitaxel (1 μM), combretastatin A-4 (100 nM) or compound 7s (100 nM) for 16 h. Following treatment cells were gently washed in PBS, fixed for 20 min with 4% paraformaldehyde in PBS and permeabilised in 0.5% Triton X-100. Following washes in PBS containing 0.1% Tween (PBST), cells were blocked in 5% bovine serum albumin diluted in PBST. Cells were then incubated with mouse monoclonal anti-α-tubulin−FITC antibody (clone DM1A) (Sigma-Aldrich, 2033 Westport Center Dr, St. Louis, MO, USA) (1:100) for 2 h at room temperature. Following washes in PBST, cells were incubated with Alexa Fluor 488 dye (1:450) for 1 h at room temperature. Following washes in PBST, the cells were mounted in Ultra Cruz Mounting Media (Santa Cruz Biotechnology Inc., 10410 Finnell Street, Dallas, TX, USA) containing 4,6-diamino-2-phenolindol dihydrochloride (DAPI). Images were captured by Leica SP8 confocal microscopy with Leica application suite X software (Leica Microsystems CMS GmbH Am Friedensplatz 3 D-68165 Mannheim, Germany). All images in each experiment were collected on the same day using identical parameters. Experiments were performed on three independent occasions.

The subject of data set [2] is colchicine-binding site of tubulin. Briefly: Colchicine-binding site assay (EBI cross-linking, Western blot) in MCF-7 cells. The note with it: 10 μM for 2 h, then EBI 100 μM for 1.5 h. Format: cell-based, human. The protocol: MCF-7 cells were seeded at a density of 5 × 10^4 cells/well in 6-well plates and incubated overnight. Cells were treated with vehicle control [ethanol (0.1% v/v)] or compound 7s (10 μM) for 2 h. After this time, selected wells were treated with N,N′-ethylene-bis(iodoacetamide)(EBI) (100 μM) (Santa Cruz Biotechnology Inc. 10410 Finnell Street, Dallas, Texas, USA) for 1.5 h. Following treatment, cells were twice washed with ice-cold PBS and lysed by addition of Laemmli buffer. Samples were separated by SDS-PAGE, trasnsferred to polyvinylidene difluoride membranes and probed with β-tubulin antibodies (Sigma-Aldrich, 2033 Westport Center Dr, St. Louis, MO, USA).
For orientation: In western blotting, separated proteins are transferred to a membrane and probed.

For another data set, the system named is Hs578Ts(i)8 cells. Briefly: Antiproliferative activity in invasive Hs578Ts(i)8 cells. It is filed as cell-based.
In another data set the test system is MCF-7 cells. Description: Annexin V/PI apoptotic assay. The note with it: for apoptotic cells (annexin-V positive): MCF-7, 72 h.
The subject of data set [3] is Hs578T breast cancer cell line. Description: Antiproliferative activity in Hs578T cells. The note with it: Homo sapiens, Hs-578T. Format: cell-based.
The test system of a further data set is HL-60. Briefly: Antiproliferative activity in HL-60 leukemia cells. Particulars: Homo sapiens. Format: cell-based. On the procedure:
The human breast carcinoma cell line MCF-7, was purchased from the European Collection of Animal Cell Cultures (ECACC) and was cultured in Eagle’s minimum essential medium with 10% fetal bovine serum, 2 mM L-glutamine and 100 μg/mL penicillin/streptomycin. The medium was supplemented with 1% non-essential amino acids. The human breast carcinoma cell line MDA-MB-231 was purchased from the European Collection of Animal Cell Cultures (ECACC). MDA-MB-231 cells were maintained in Dulbecco’s modified Eagle’s medium (DMEM) supplemeted with 10% (v/v) fetal bovine serum, 2 mM L-glutamine and 100 μg/mL penicillin/streptomycin (complete medium). All media contained 100 U/mL penicillin and 100 μg/mL streptomycin. […]
Cells were seeded at a density of 5 × 10^3 cells/well (MCF-7), in triplicate in 96-well plates. […] Cell viability for MCF-7 and MDA-MB-231 was analysed using the Alamar Blue assay (Invitrogen Corp, Thermo Fisher Scientific, 168 Third Avenue, Waltham, MA, USA) according to the manufacturer’s instructions. […] Fluorescence was read using a 96-well fluorimeter with excitation at 530 nm and emission at 590 nm. Results were expressed as percentage viability relative to vehicle control (100%). […]

A further data set has as its system NCI-H460. Briefly: NCI60 screen (SRB), Non-Small Cell Lung Cancer. Format: cell-based. The note with it: Homo sapiens.
The test system of another data set is EKVX. Briefly: NCI60 screen (SRB), Non-Small Cell Lung Cancer. The note with it: Homo sapiens. Format: cell-based.
The test system of the next data set is HEK-293T cells. Description: Cytotoxicity in non-tumourigenic HEK-293T cells. Format: cell-based, human.
In another data set the test system is HOP-92. Description: NCI60 screen (SRB), Non-Small Cell Lung Cancer. It is filed as cell-based. The note with it: Homo sapiens.
The mark [4] stands for this setting: Homo sapiens, MCF7, 72 h, read-out: Viable.

Where two headings read alike, the source gives them in different places. Some results are limits rather than exact numbers.

With `COc1ccc(/C=C\c2cc(OC)c(OC)c(OC)c2)cc1O` [CA-4, Combretastatin A-4, reference compound], the “effect on microtubule network” value in data set [1] is listed as “complete loss of microtubule formation”. Besides, in [2], the β-tubulin-EBI adduct formation entry is listed as “EBI adduct formation is inhibited”. For the same molecule, the IC50 (usually the concentration that gives 50% inhibition) in the data set on Hs578Ts(i)8 cells (invasive Hs578Ts(i)8 cells, read-out: IC50) came out at 20 nM; in [3] (triple-negative Hs578T cells, read-out: IC50) it was 8 nM; in the data set with HL-60, 4 nM. Also, in the data set with MCF-7 cells (setting [4]), the viability at 0.05 µM came to 61.8%. Further, the “apoptotic cells (annexin-V positive)” value in the data set with MCF-7 cells (50 nM) was 34.6%.
As for `C=CC1C(=O)N(c2cc(OC)c(OC)c(OC)c2)C1c1ccc(OC)cc1` (stereo not shown) [Compound 7h, 4-(4-Methoxyphenyl)-1-(3,4,5-trimethoxyphenyl)-3-vinylazetidin-2-one], the IC50 came to 76 nM in the data set with Hs578Ts(i)8 cells and 31 nM in data set [3]. Moreover, the GI50 – broadly, the concentration at which growth is held to half of that of the control – with NCI-H460 worked out at 36 nM; in the data set on EKVX, 58.3 nM.
Regarding `C=CC1C(=O)N(c2cc(OC)c(OC)c(OC)c2)C1c1ccc(OC)c(O)c1` (stereo not shown) [Compound 7s, 4-[3-Hydroxy-4-methoxyphenyl]-1-(3,4,5-trimethoxyphenyl)-3-vinylazetidin-2-one], the “effect on microtubule network” value in [1] is given as “complete loss of microtubule formation”. Moreover, the “cytotoxicity against non-tumorigenic HEK-293T cells” value in the data set with HEK-293T cells was “minimal cytotoxicity”. The IC50 was more than 5000 nM in the data set with HEK-293T cells (Homo sapiens, non-tumourigenic HEK-293T cells) and 17 nM in the data set with HL-60. For the same molecule, in data set [2], the β-tubulin-EBI adduct formation entry is recorded as “EBI adduct formation is inhibited”. Further, the viability at 0.01 µM in the data set with MCF-7 cells (setting [4]) was found to be 82.8%. Also, the viability at 0.1 µM with MCF-7 cells (setting [4]) amounted to 64.5%. In addition, the “apoptotic cells (annexin-V positive)” value is recorded as “About 13.6%” in the data set with MCF-7 cells (10 nM) and 31.9% in the data set with MCF-7 cells (100 nM).
On to `C=CC1C(=O)N(c2cc(OC)c(OC)c(OC)c2)C1c1ccc(OC)c(N)c1` (stereo not shown) [Compound 7t, 4-(3-Amino-4-methoxyphenyl)-1-(3,4,5-trimethoxyphenyl)-3-vinylazetidin-2-one], for which the GI50 in the data set with HOP-92 is 39.3 nM; in the data set with NCI-H460, 35.5 nM.
